# Measured values from patent US12414927B2, “CXCR5 antagonists and methods of treating diseases or disorders using same” (YALE UNIVERSITY, priority 2020, dated 2025).
# Entries after “also recorded” stand apart in the source; their conditions may differ.
# How the values were obtained:
# [1] = target: T1, human CXCR5 (Homo sapiens, UniProt P32302); assay: Calcium assay: inhibition of Gaq-mediated Ca2+ flux at an EC80 of CXCL13 agonist; type: cell-based; details: HEK-293 cells transfected with human CXCR5, in the presence or absence of BSA
# T1 construct: expressed in transfected cells; host or cells: HEK-293 (division-arrested, stably expressing)
# T1 sequence (P32302 1-372): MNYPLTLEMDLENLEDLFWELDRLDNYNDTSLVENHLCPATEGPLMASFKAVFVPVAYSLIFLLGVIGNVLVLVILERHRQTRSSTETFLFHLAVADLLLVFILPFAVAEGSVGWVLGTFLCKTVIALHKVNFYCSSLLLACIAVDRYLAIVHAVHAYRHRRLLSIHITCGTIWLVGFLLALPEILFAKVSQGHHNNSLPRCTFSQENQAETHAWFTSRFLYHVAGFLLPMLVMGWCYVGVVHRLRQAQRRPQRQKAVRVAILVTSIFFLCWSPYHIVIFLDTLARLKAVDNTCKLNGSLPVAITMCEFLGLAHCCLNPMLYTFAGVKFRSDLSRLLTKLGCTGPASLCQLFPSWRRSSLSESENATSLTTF
# Protocol: FIGS. 1A-1B illustrate inhibition of Gaq-mediated Ca^2+ flux for certain compounds of the disclosure. The assays use HEK cells stably expressing functional human CXCR5 and measure inhibition of Gaq-mediated Ca^2+ flux at an EC80 of CXCL13 agonist. Assays were performed in HBSS buffer (FIG. 1A) and HBSS buffer+1% BSA (FIG. 1B); the compounds were active in the presence of the bovine serum albumin, without significant change in an IC50 value. Compound 1 is 2-(3-methyl-2-(2-methylprop-1-en-1-yl)benzamido)-2,3-dihydro-1H-indene-2-carboxylic acid; Compound 2 is 2-(2-isobutyl-3-methylbenzamido)-2,3-dihydro-1H-indene-2-carboxylic acid.
# (§1) These assays were performed in division-arrested HEK-293 cells transfected with human CXCR5. The CXCL13 ligand was used as agonist.
# The calcium assay allows homogeneous measurement of intracellular calcium changes caused by activation of G-protein coupled receptors or calcium channels.
# For adherent cells, plate 50K to 70K cells/well for a 96 well plate and 12K to 20K cells/well for a 384 well plate the day before the experiment. Add 100 μl/well of cell suspension to 96-well plates or 25 μl/well to 384-well plates, allow cells to attach and grow overnight for 16 to 24 hours in cell culture incubators. Prior to dye loading the plate, examine the cells for confluency and overall health.
# 1. […]
# [2] = In vivo PK, single dose by IV, PO or IP route
# Protocol: Three groups of 30 mice (male, CD-1) were dosed via one route per group (PO, IP, or IV). Single dose level was used per route of administration. Dosing level (mg/kg): IV (1 mg/kg); PO (10 mg/kg); and IP (10 mg/kg). […] Blood collections were terminal for each mouse, so triplicate data was obtained for each time point.
# [3] = tested on: Raji cell line; assay: Proliferation of CXCR5-expressing Burkitt's B-cell lymphoma cell line over 7 days; type: cell-based; details: 7-day period, media containing 5% FBS, various doses, DMSO negative control
# Source text: FIG. 3 illustrates proliferation of the CXCR5-expressing Burkitt's B-cell lymphoma cell line (Raji cell line) over a 7-day period in the media containing 5% FBS in the presence of various doses of Compound 2 or Compound 3 (1-(2-isobutyl-3-methylbenzamido)-2,3-dihydro-1H-indene-1-carboxylic acid). […] DMSO is shown as a negative control.
# At this time a Tfh or AITL cell line has not been developed. Thus, a B-cell lymphoma cell line (Raji) was used to determine whether the contemplated compounds can inhibit proliferation. In this experiment, Compound 2 was compared to analogue Compound 3 over a 7-day period (FIG. 3).
# [4] = tested on: patient-derived AITL tissue; assay: In vivo efficacy in AITL patient-derived xenograft (human CD45+ cells)
# Protocol: FIGS. 9A-9B illustrate CD45 levels in bone marrow (FIG. 9A) and peripheral blood (FIG. 9B) of mice treated with Compound 2 or vehicle. […] (NOD/SCID, IL-2R knockout) mice (8 animals per group) were implanted with patient-derived AITL tissue. Compound 2 binds to human but not to murine CXCR5. Animals were treated with vehicle or 40 mg/kg Compound 2 via oral gavage 2×/day. t test comparing all mice at the time of sacrifice was performed to analyze the data. Error bars—SEM.
# For in vivo efficacy study, mice were implanted with AITL PDX and engraftment levels were quantified in each animal as circulating human CD45+ cells levels in blood. Dosing began when average engraftment reached 0.13%, and the cohort was treated for 42 days. The mice were monitored weekly for weight loss and daily for any clinical mortality observation. Only 1 treated mouse lost weight (14%) during the first week but gained it back and was otherwise stable similar to the other mice. Blood was drawn at 0, 14, and 28 days after the dosing started, and before euthanasia to measure tumor burden. […] When mice were sacrificed, various organs were removed and stored at −80° C. At the end of the study (42 days of dosing), 3 and 5 mice treated with vehicle or Compound 2, respectively, were still alive. […] The absolute percentage in the blood was 44.5% and 57.6% for treated and untreated mice, respectively.
# PDX was implanted into immunocompromised NSG mice.
# Starting at around 21 days after implantation, animals are examined for engraftment every 1-2 weeks. Engraftment is determined by measuring human CD45+ cells in blood (flow cytometry).
# After engraftment is observed, animals are dosed by oral gavage every 10-14 hours with vehicle (untreated groups) or with compound YU241279 at 40 mg/kg (treated groups).
# Animals are evaluated for general health daily and weighed twice per week; circulating human CD45+ cells are measured on days 14 and 28 after treatment initiation to evaluate tumor progression. Based on day 28 analysis, treatment may be extended (the decision to extend the dosing is based on the health status of the vehicle group: CD45 (<50%), lack of morbidity by day 28); Readouts at conclusion of the study include spleen weight, survival, and flow cytometry assessment for human CD45+ cells in blood and bone marrow.
# [5] = target: T2, murine CXCR5 (Mus musculus, UniProt Q04683); assay: Binding to murine CXCR5
# T2 sequence (Q04683 1-374): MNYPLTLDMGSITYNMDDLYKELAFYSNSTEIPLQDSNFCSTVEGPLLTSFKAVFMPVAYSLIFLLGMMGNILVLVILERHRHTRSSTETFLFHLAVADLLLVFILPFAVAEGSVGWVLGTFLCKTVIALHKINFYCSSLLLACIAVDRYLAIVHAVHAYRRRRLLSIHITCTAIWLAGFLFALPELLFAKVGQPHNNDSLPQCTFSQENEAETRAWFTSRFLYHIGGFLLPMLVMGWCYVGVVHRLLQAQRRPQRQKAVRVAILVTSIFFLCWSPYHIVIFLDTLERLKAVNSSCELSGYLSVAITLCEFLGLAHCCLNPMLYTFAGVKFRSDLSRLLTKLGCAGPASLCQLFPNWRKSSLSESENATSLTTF
# [6] = Preliminary toxicity/tolerability study, 40 mg/kg BID by oral gavage; type: in vivo, NSG mice
# Protocol: FIG. 8 illustrates absolute body weight for mice treated with Compound 2, 40 mg/kg BID. 5 NSG mice (highly immunodeficient, same strain as in the in vivo efficacy study) were tested. Compound 2 was administered via oral gavage, BID (twice a day) for 14 days. […] Body weight was monitored daily. Mean body weight loss was <4%, confirming tolerability.
# It was decided that a dose of 40 mg/kg would be used in the AITL PDX studies (design outlined in FIG. 6). Prior to the study, preliminary 1-week toxicity studies were performed on the NSG immunocompromised mice (NOD/SCID, IL-2R knockout) that would be used on the AITL PDX study (FIG. 8).
# [7] = 10-day oral dosing PK/tolerability study, 30 mg/kg every 12 hours; type: in vivo, female CB.17 SCID mice
# Protocol: FIG. 6 illustrates a dosing scheme for oral administration of Compound 2 over 10 days. Female CB.17 SCID mice were dosed according to the table shown: Groups 1-2 were treated with the drug and Group 3 animals were treated with vehicle control. Mice were orally dosed at 30 mg/kg every 12 hours for 10 days. Group 2 (18 animals total, alternating animals) were used for PK blood analysis, and Group 1 (5 animals total) were sacrificed at end point for gross necropsy.
# FIGS. 7A-7B illustrate in vivo PK results for multiple doses of Compound 2 (30 mg/kg) administered orally over 10 days. […] No change in slope of decrease indicated no change in rate of metabolism.
# (§2) For suitability of murine AITL patient derived xenografts (PDX) studies, pharmacokinetics (PK) of Compound 2 were determined by IV, oral, and IP administration (FIG. 4). These parameters provided confidence for oral administration studies at different doses and are suitable for further PK studies at 24-hour measurement at different oral doses. The study allowed one to determine the dose that results in a blood level of ˜IC80.
# [8] = In vivo PK, oral doses of 10, 30 and 60 mg/kg; set-up: species or system female CB.17 SCID mice; details: oral 10, 30 and 60 mg/kg
# Protocol: FIG. 5 illustrates in vivo PK results for multiple doses of Compound 2 administered orally. 9 female CB.17 SCID mice per group were used except for vehicle control group, where 15 mice were tested. Three drug doses were used (10, 30 and 60 mg/kg), with dosing volume of 10 mL/kg (0.200 mL/20 g mouse) for each dose. Volume was adjusted for body weight, and analysis was run at 6 different time points.
# as §2
# [9] = target: T1, human CXCR5; assay: Cyclic AMP assay: inhibition of Gai-mediated decrease of cAMP at an EC80 of CXCL13; type: cell-based; details: HEK-293 cells transfected with human CXCR5, in the presence or absence of BSA
# Protocol: FIGS. 2A-2B illustrate inhibition of Gat-mediated decrease of cAMP for certain compounds of the disclosure. The assays use HEK cells stably expressing functional human CXCR5 and measure inhibition of Gat-mediated decrease of cAMP at an EC80 of CXCL13. Assays were performed in HBSS buffer (FIG. 2A) and HBSS buffer+1% BSA (FIG. 2B); the compounds were active in the presence of the bovine serum albumin, without significant change in an IC50 value.
# as §1
# [10] = target: T1, human CXCR5; assay: Binding to human CXCR5
# [11] = at death, 40 mg/kg oral, treated mice
# [12] = 40 mg/kg oral gavage BID for 14 days, 5 NSG mice
# [13] = 40 mg/ml (so in the source), NSG mice
smiles,measurement,setting,value
"Cc1cccc(C(=O)NC2(C(=O)O)Cc3ccccc3C2)c1CC(C)C [Compound 2, 2-(2-isobutyl-3-methylbenzamido)-2,3-dihydro-1H-indene-2-carboxylic acid]",activity in calcium assay (inhibition of Gaq-mediated Ca2+ flux),[1],sub-micromolar
same,clinical observations,[2]; IV arm subsequently dosed at 0.2 mg/mL delivered at 5 mL/kg,without any adverse observations
same,clinical observations,"[2]; original IV group, single dose","labored breathing, decreased activity, and death"
same,bioavailability,[2]; pharmacokinetic study in mice,confirmed bioavailability
same,proliferation of Raji cells,[3],dose-dependent decrease in proliferation; also recorded: clearly inhibited proliferation
same,tumor loads in peripheral blood and bone marrow compared to vehicle control,"[4]; 40 mg/kg oral gavage 2x/day, at time of sacrifice",Significantly reduced tumor loads
same,mice still alive at the end of the study,"[4]; 42 days of dosing, 8 animals per group",5
same,absolute percentage of human CD45+ in the blood,[4]; [11],44.5%
same,absolute percentage of human CD45+ in the bone marrow,[4]; [11],10.6%
same,weight loss of the only treated mouse that lost weight,"[4]; first week of dosing, 1 treated mouse, regained afterwards",14%
same,binding to murine CXCR5,[5],not
same,mean body weight loss,[6]; [12],< 4%
same,morbidity,[6]; [12],No morbidity was observed
same,body weight gain compared with vehicle,[6]; [13],did not gain weight as fast as the mice treated with vehicle
same,other abnormalities,[6]; [13],no other abnormalities observed
same,tolerability,[7]; 10-day study at 30 mg/kg oral,demonstrated tolerability
same,health of animals,"[7]; oral 30 mg/kg every 12 hours for 10 days, during dosing and for 2 weeks following",good health
same,change of compound metabolism over dosing period,"[7]; oral 30 mg/kg every 12 hours, 10 days, first two doses versus 20th dose, 30 mg/kg",compound metabolism was unchanged; also recorded: no change metabolism
same,blood levels relative to IC50 between doses,"[7]; oral 30 mg/kg, 12 hours between doses",remained above IC50 for full 12 hours
same,compound blood level versus compound amount administered,[8],clear increase in compound blood level versus compound amount administered
same,activity in cyclic AMP assay (inhibition of decrease of cAMP),[9],sub-micromolar
same,binding to human CXCR5,[10],binds
"CC(C)=Cc1c(C)cccc1C(=O)NC1(C(=O)O)Cc2ccccc2C1 [Compound 1, 2-(3-methyl-2-(2-methylprop-1-en-1-yl)benzamido)-2,3-dihydro-1H-indene-2-carboxylic acid]",activity in calcium assay (inhibition of Gaq-mediated Ca2+ flux),[1],sub-micromolar
same,activity in cyclic AMP assay (inhibition of decrease of cAMP),[9],sub-micromolar
"Cc1cccc(C(=O)NC2(C(=O)O)CCc3ccccc32)c1CC(C)C (stereo not shown) [Compound 3, 1-(2-isobutyl-3-methylbenzamido)-2,3-dihydro-1H-indene-1-carboxylic acid]",proliferation of Raji cells,[3],less potent than Compound 2
